Test results from paper PMC10480608 (Heliyon, 2023).

Key:
[1] = test system: MCF-7 (human breast adenocarcinoma); test: MTT cytotoxicity assay, MCF-7; assay type: cell-based; conditions: Homo sapiens, MCF7, 72 h, read-out: IC50 ± SD, MCF7
[2] = test system: HepG2 (hepatocellular carcinoma); test: MTT cytotoxicity assay, HepG2; assay type: cell-based, human; conditions: Homo sapiens, HepG2, 72 h, read-out: IC50 ± SD, HEPG-2
[3] = test system: PC3 (human prostate carcinoma); test: MTT cytotoxicity assay, PC3; assay type: cell-based; conditions: 72 h, read-out: IC50 ± SD, PC-3
[4] = test system: normal human dermal/fibroblasts; test: MTT cytotoxicity assay, normal fibroblasts; assay type: cell-based; conditions: Homo sapiens, Fibroblast, 72 h, read-out: IC50 ± SD, Fibro dental

| SMILES | IC50 [1] [µM] | IC50 [2] [µM] | IC50 [3] [µM] | IC50 [4] [µM] |
| --- | --- | --- | --- | --- |
| Cc1nc([N+](=O)[O-])cn1Cc1ccccc1 [Compound 2, N1-benzyl-2-methyl-4-nitroimidazole] | 68 ± 20 | – | – | – |
| Cc1nc([N+](=O)[O-])c(Br)n1Cc1ccccc1 [Compound 3, 5-bromo-N1-benzyl-2-methyl-4-nitroimidazole] | – | > 500 | > 500 | > 500 |
| C#CCN1CCN(c2c([N+](=O)[O-])nc(C)n2Cc2ccccc2)CC1 [Compound 5, 1-(N1-benzyl-2-methyl-4-nitro-imidazole-5-yl)-4-(prop-2-yn-1-yl)piperazine] | 84 ± 2 | – | – | > 500 |
| Cc1nc([N+](=O)[O-])c(N2CCN(Cc3cn(Cc4ccccc4)nn3)CC2)n1Cc1ccccc1 [Compound 9a, 1-((N1-benzyl-1H-1,2,3-triazol-4-yl)methyl)-4-(N1-benzyl-2-methyl-4-nitro-imidazole-5-yl)piperazine] | 55 ± 40 | – | – | > 500 |
| Cc1nc([N+](=O)[O-])c(N2CCN(Cc3cn(Cc4ccc(Br)cc4)nn3)CC2)n1Cc1ccccc1 [Compound 9b, 1-(N1-benzyl-2-methyl-4-nitro-imidazole-5-yl)-4-((N1-(4-bromobenzyl)-1H-1,2,3-triazol-4-yl)methyl)piperazine] | 79 ± 21 | – | – | > 500 |
| Cc1nc([N+](=O)[O-])c(N2CCN(Cc3cn(Cc4ccc(F)cc4)nn3)CC2)n1Cc1ccccc1 [Compound 9c, 1-(N1-benzyl-2-methyl-4-nitro-imidazole-5-yl)-4-((N1-(4-fluorobenzyl)-1H-1,2,3-triazol-4-yl)methyl)piperazine] | 24 ± 1.9 | > 500 | > 500 | > 500 |
| Cc1nc([N+](=O)[O-])c(N2CCN(Cc3cn(Cc4cccc([N+](=O)[O-])c4)nn3)CC2)n1Cc1ccccc1 [Compound 9d, 1-(N1-benzyl-2-methyl-4-nitro-imidazole-5-yl)-4-((N1-(3-nitrobenzyl)-1H-1,2,3-triazol-4-yl)methyl)piperazine] | 40 ± 15 | – | – | – |
| Cc1nc([N+](=O)[O-])c(N2CCN(Cc3cn(Cc4cccc(Br)c4)nn3)CC2)n1Cc1ccccc1 [Compound 9f, 1-(N1-benzyl-2-methyl-4-nitro-imidazole-5-yl)-4-((N1-(3-bromobenzyl)-1H-1,2,3-triazol-4-yl)methyl)piperazine] | 53 ± 60 | – | – | – |
| Cc1nc([N+](=O)[O-])c(N2CCN(Cc3cn(Cc4ccccc4[N+](=O)[O-])nn3)CC2)n1Cc1ccccc1 [Compound 9h, 1-(N1-benzyl-2-methyl-4-nitro-imidazole-5-yl)-4-((N1-(2-nitrobenzyl)-1H-1,2,3-triazol-4-yl)methyl)piperazine] | 48 ± 4 | – | – | > 500 |
| Cc1nc([N+](=O)[O-])c(N2CCN(Cc3cn(-c4ccc(Br)cc4)nn3)CC2)n1Cc1ccccc1 [Compound 11a, 1-(N1-benzyl-2-methyl-4-nitro-1H-imidazole-5-yl)-4-((N1-(4-bromophenyl)-1H-1,2,3-triazol-4-yl)methyl)piperazine] | – | > 500 | > 500 | > 500 |
| CSc1ccccc1-n1cc(CN2CCN(c3c([N+](=O)[O-])nc(C)n3Cc3ccccc3)CC2)nn1 [Compound 11b, 1-(N1-benzyl-2-methyl-4-nitro-1H-imidazole-5-yl)-4-((N1-(2-(methylthio)phenyl)-1H-1,2,3-triazol-4-yl)methyl)piperazine] | 136 ± 60 | – | – | – |
| CCOc1ccccc1-n1cc(CN2CCN(c3c([N+](=O)[O-])nc(C)n3Cc3ccccc3)CC2)nn1 [Compound 11c, 1-(N1-benzyl-2-methyl-4-nitro-1H-imidazole-5-yl)-4-((N1-(2-ethoxyphenyl)-1H-1,2,3-triazol-4-yl)methyl)piperazine] | 399 ± 79 | – | – | – |
| Cc1nc([N+](=O)[O-])c(N2CCN(Cc3cn(-c4ccccc4)nn3)CC2)n1Cc1ccccc1 [Compound 11d, 1-(N1-benzyl-2-methyl-4-nitro-1H-imidazole-5-yl)-4-((N1-phenyl-1H-1,2,3-triazol-4-yl)methyl)piperazine] | 312 ± 65 | – | – | – |
| Cc1ccc(-n2cc(CN3CCN(c4c([N+](=O)[O-])nc(C)n4Cc4ccccc4)CC3)nn2)cc1 [Compound 11e, 1-(N1-benzyl-2-methyl-4-nitro-1H-imidazole-5-yl)-4-((N1-(p-tolyl)-1H-1,2,3-triazol-4-yl)methyl)piperazine] | 219 ± 12 | – | – | – |
| COc1ccc(-n2cc(CN3CCN(c4c([N+](=O)[O-])nc(C)n4Cc4ccccc4)CC3)nn2)cc1 [Compound 11f, 1-(N1-benzyl-2-methyl-4-nitro-1H-imidazole-5-yl)-4-((N1-(4-methoxyphenyl)-1H-1,2,3-triazol-4-yl)methyl)piperazine] | 251 ± 71 | – | – | > 500 |
| Cc1ccccc1-n1cc(CN2CCN(c3c([N+](=O)[O-])nc(C)n3Cc3ccccc3)CC2)nn1 [Compound 11g, 1-(N1-benzyl-2-methyl-4-nitro-1H-imidazole-5-yl)-4-((N1-(o-tolyl)-1H-1,2,3-triazol-4-yl)methyl)piperazine] | 183 ± 10 | – | – | – |
| CCc1ccccc1-n1cc(CN2CCN(c3c([N+](=O)[O-])nc(C)n3Cc3ccccc3)CC2)nn1 [Compound 11h, 1-(N1-benzyl-2-methyl-4-nitro-1H-imidazole-5-yl)-4-((N1-(2-ethylphenyl)-1H-1,2,3-triazol-4-yl)methyl)piperazine] | 88 ± 37 | – | – | – |
| Cc1nc([N+](=O)[O-])c(N2CCN(Cc3cn(-c4ccccc4[N+](=O)[O-])nn3)CC2)n1Cc1ccccc1 [Compound 11i, 1-(N1-benzyl-2-methyl-4-nitro-1H-imidazole-5-yl)-4-((N1-(2-nitrophenyl)-1H-1,2,3-triazol-4-yl)methyl)piperazine] | 185 ± 33 | – | – | > 500 |
| Cc1nc([N+](=O)[O-])c(N2CCN(Cc3cn(-c4ccc([N+](=O)[O-])cc4)nn3)CC2)n1Cc1ccccc1 [Compound 11k, 1-(N1-benzyl-2-methyl-4-nitro-1H-imidazole-5-yl)-4-((N1-(4-nitrophenyl)-1H-1,2,3-triazol-4-yl)methyl)piperazine] | 671 ± 140 | – | – | – |
| COc1cccc(-n2cc(CN3CCN(c4c([N+](=O)[O-])nc(C)n4Cc4ccccc4)CC3)nn2)c1 [Compound 11l, 1-(N1-benzyl-2-methyl-4-nitro-1H-imidazole-5-yl)-4-((N1-(3-methoxyphenyl)-1H-1,2,3-triazol-4-yl)methyl)piperazine] | 198 ± 10 | – | – | – |
| Cc1nc([N+](=O)[O-])c(N2CCN(Cc3cn(-c4cccc(Cl)c4)nn3)CC2)n1Cc1ccccc1 [Compound 11n, 1-(N1-benzyl-2-methyl-4-nitro-1H-imidazole-5-yl)-4-((N1-(3-chlorophenyl)-1H-1,2,3-triazol-4-yl)methyl)piperazine] | 155 ± 70 | – | – | > 500 |
| Cc1nc([N+](=O)[O-])c(N2CCN(Cc3cn(-c4cccc5c4CCCC5)nn3)CC2)n1Cc1ccccc1 [Compound 11o, 1-(N1-benzyl-2-methyl-4-nitro-1H-imidazole-5-yl)-4-((N1-(5,6,7,8-tetrahydronaphthalen-1-yl)-1H-1,2,3-triazol-4-yl)methyl)piperazine] | 131 ± 30 | – | > 500 | > 500 |
| Cc1nc([N+](=O)[O-])c(N2CCN(Cc3cn(-c4cccc5ccccc45)nn3)CC2)n1Cc1ccccc1 [Compound 11q, 1-(N1-benzyl-2-methyl-4-nitro-1H-imidazole-5-yl)-4-((N1-(naphthalen-1-yl)-1H-1,2,3-triazol-4-yl)methyl)piperazine] | 270 ± 40 | – | – | – |
